Experimental data published in ChEMBL document CHEMBL3137667, “[Drug-induced liver injury; fourteenth updated edition of the bibliographic database of liver injuries and related drugs]” (Gastroenterol Clin Biol, 2004).

Columns and labels:
[1] = human
[2] = human, serum
[3] = human, serum, 4383 h
[4] = human; remark: listed apart in the source
[5] = human; remark: listed apart in the source
[6] = human; remark: listed apart in the source
[7] = human; remark: listed apart in the source
[8] = human; remark: listed apart in the source
[9] = human; remark: listed apart in the source
[10] = human; remark: listed apart in the source
[11] = human; remark: listed apart in the source
[12] = Highest frequency of acute liver toxicity observed during clinical trials, expressed as a percentage. [column '% AIGUE' in source]; settings: human
[13] = human, serum; remark: listed apart in the source
[14] = Highest frequency of moderate liver toxicity observed during clinical trials, expressed as a percentage. [column '% BIOL' in source]; settings: human
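Throughout, for Hepatotoxicity (association with vascular disease): count of indexed literature references reporting vascular liver injury in humans, e.g. peliosis hepatitis, hepatic veno-occlusive disease or Budd-Chiari syndrome.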
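Throughout, for Hepatotoxicity (benign tumour): value is a count of indexed literature references citing a benign tumour confirmed by histopathology.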
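Throughout, for Hepatotoxicity (choleostasis): human cholestatic liver injury, shown by histopathology or by peak ALT or AST elevation over alkaline phosphatase ratio below 2, value counts indexed literature reports.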
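Throughout, for Hepatotoxicity (chronic liver disease): chronic liver injury confirmed by histopathology or persistently raised serum aminotransferase activity beyond 6 months, value given as the count of indexed literature references.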
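Throughout, for Hepatotoxicity (cirrhosis): value is a count of indexed literature references reporting cirrhosis confirmed by histopathology.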
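Throughout, for Hepatotoxicity (cytolytic): human cytolytic liver injury, shown by histopathology or by a ratio above 5 of peak ALT or AST elevation to alkaline phosphatase elevation, value counts indexed references.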
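Throughout, for Hepatotoxicity (granulomatous hepatitis): value is a count of indexed literature references reporting granulomatous liver disease confirmed by histopathology.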
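Throughout, for Hepatotoxicity (malignant tumour): malignant tumour confirmed by histopathology, value gives the count of indexed literature references reporting it.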
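Throughout, for Hepatotoxicity (severe hepatitis): human clinical data: severe hepatitis, meaning potentially life-threatening liver failure or clinically observed cases, the value counts how many indexed literature references report it.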
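Throughout, for Hepatotoxicity (steatosis): steatosis confirmed by histopathology, value is the count of indexed references.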

Row | Compound | Hepatotoxicity (benign tumour) [1] | Hepatotoxicity (moderate) [2] | Hepatotoxicity (chronic liver disease) [3] | Hepatotoxicity (granulomatous hepatitis) [4] | Hepatotoxicity (steatosis) [5] | Hepatotoxicity (cirrhosis) [6] | Hepatotoxicity (severe hepatitis) [7] | Hepatotoxicity (malignant tumour) [8] | Hepatotoxicity (choleostasis) [9] | Hepatotoxicity (cytolytic) [10] | Hepatotoxicity (association with vascular disease) [11] | Hepatotoxicity (acute) [12] [%] | Hepatotoxicity (acute) [13] | Hepatotoxicity (moderate) [14] [%] | Hepatotoxicity (granulomatous hepatitis) ([4]; Liver) | Hepatotoxicity (severe hepatitis) ([7]; Liver) | Hepatotoxicity (choleostasis) ([9]; Liver) | Hepatotoxicity (cytolytic) ([10]; Liver) | Hepatotoxicity (acute) ([12]; Liver) [%] | Hepatotoxicity (moderate) ([14]; Liver) [%]
1 | CC(=O)NCCOC(=O)C(Oc1cccc(C(F)(F)F)c1)c1ccc(Cl)cc1 (stereo not given) [HALOFENATE] | 0 | 1 | 0 | 0 | 0 | 0 | 0 | 0 | 0 | 0 | 0 | 0 | 0 | 0 |  |  |  |  |  | 
2 | CCCCN(CCCC)CCC(O)c1cc2c(Cl)cc(Cl)cc2c2cc(C(F)(F)F)ccc12 (stereo not given) [HALOFANTRINE] | 0 | 8 | 0 | 0 | 0 | 0 | 0 | 0 | 0 | 0 | 0 | 0 | 0 | 29 |  |  |  |  |  | 
3 | OC(CCN1CCCCC1)(c1ccccc1)C1CCCCC1 (stereo not given) [TRIHEXYPHENIDYL] | 0 | 0 | 0 |  | 0 | 0 |  | 0 |  |  | 0 |  | 1 |  | 0 | 1 | 0 | 1 | 0 | 0
4 | CC(C)(N)C(=O)N[C@H](COCc1ccccc1)C(=O)N1CCC2(CC1)CN(S(C)(=O)=O)c1ccccc12 [IBUTAMOREN] | 0 | 1 | 0 | 0 | 0 | 0 | 0 | 0 | 0 | 0 | 0 | 0 | 0 | 21.4 |  |  |  |  |  | 
5 | CC(CCC(=O)O)C1CC[C@H]2[C@@H]3CC[C@@H]4C[C@H](O)CC[C@]4(C)[C@H]3CC[C@]12C (stereo not given in full) | 0 | 1 | 0 | 0 | 0 | 0 | 0 | 0 | 0 | 0 | 0 | 0 | 0 | 11.1 |  |  |  |  |  | 
6 | CCc1nc(N)nc(N)c1-c1ccc(Cl)cc1.Nc1ccc(S(=O)(=O)c2ccc(N)cc2)cc1 | 0 | 1 | 0 | 0 | 0 | 0 | 0 | 0 | 0 | 1 | 0 | 2.9 | 3 | 25.3 |  |  |  |  |  | 
7 | CCOC(=O)NC1=C(N2CC2)C(=O)C(NC(=O)OCC)=C(N2CC2)C1=O [DIAZIQUONE] | 0 | 5 | 0 | 0 | 0 | 0 | 0 | 0 | 0 | 0 | 0 | 0 | 0 | 50 |  |  |  |  |  | 
8 | CC(C)C[C@H](NC(=O)[C@@H](COC(C)(C)C)NC(=O)[C@H](Cc1ccc(O)cc1)NC(=O)[C@H](CO)NC(=O)[C@H](Cc1c[nH]c2ccccc12)NC(=O)[C@H](Cc1cnc[nH]1)NC(=O)[C@@H]1CCC(=O)N1)C(=O)N[C@@H](CCCNC(=N)N)C(=O)N1CCC[C@H]1C(=O)NNC(N)=O [GOSERELIN] | 0 | 5 | 0 | 0 | 0 | 0 | 1 | 0 | 0 | 0 | 0 | 0 | 0 | 7.8 |  |  |  |  |  | 
9 | POVIDONE | 0 | 0 | 0 | 0 | 0 | 1 | 0 | 0 | 0 | 0 | 0 | 0 | 0 | 0 |  |  |  |  |  | 
10 | Cc1cc2c(cc1CC(=O)c1sccc1S(=O)(=O)Nc1onc(C)c1Cl)OCO2 [SITAXENTAN] | 0 | 1 | 0 | 0 | 0 | 0 | 0 | 0 | 0 | 0 | 0 | 0 | 0 | 0 |  |  |  |  |  | 
11 | CCOC(=O)OC(C)OC(=O)[C@@H]1N2C(=O)[C@@H](/N=C/N3CCCCCC3)[C@H]2SC1(C)C (stereo not given in full) [BACMECILLINAM] | 0 | 3 | 0 | 0 | 0 | 0 | 0 | 0 | 0 | 0 | 0 | 0 | 0 | 1.8 |  |  |  |  |  | 
12 | C[C@H]1COc2c(C3(N)CC3)c(F)cc3c(=O)c(C(=O)O)cn1c23 [PAZUFLOXACIN] | 0 | 31 | 0 | 0 | 0 | 0 | 0 | 0 | 0 | 0 | 0 | 0 | 0 | 11.1 |  |  |  |  |  | 
13 | O=C(O)C1=C(C[n+]2ccc(CCS(=O)(=O)[O-])cc2)CS[C@@H]2[C@H](NC(=O)[C@H](NC(=O)c3[nH]cnc3C(=O)O)c3ccccc3)C(=O)N12 [CEFPIMIZOLE] | 0 | 30 | 0 | 0 | 0 | 0 | 0 | 0 | 0 | 0 | 0 | 0 | 0 | 18.8 |  |  |  |  |  | 
14 | OC(CCCN1CCCCC1)(c1ccccc1)c1ccccc1 [DIPHENIDOL] | 0 | 0 | 0 | 0 | 0 | 0 | 0 | 0 | 0 | 0 | 0 | 0 | 1 | 0 |  |  |  |  |  | 
15 | CCN1CCN(C(=O)N[C@@H](C(=O)N[C@]2(OC)C(=O)N3C(C(=O)O)=C(CSc4nnnn4C)CS[C@@H]32)[C@H](C)O)C(=O)C1=O [CEFBUPERAZONE] | 0 | 2 | 0 | 0 | 0 | 0 | 0 | 0 | 0 | 0 | 0 | 0 | 0 | 6.4 |  |  |  |  |  | 
